Counter-ions that a name gives are not always drawn.
How the values were obtained:
[1] = test system: NRF2; assay: NRF2 luciferase assay (NRF2/ARE reporter cell line); format: cell-based, human; conditions: for maximum log 2-fold change of NRF2 activation: at 12.5 μM for sulforaphane, 125 μM and 250 μM for DMF, 1000 μM for anatabine; for effect on the NRF2 pathway: FIG. 4, tobacco alkaloids
Text: A HEK-293 NRF2/ARE luciferase reporter cell line was acquired from Signosis (USA). According to Signosis, this NRF2 luciferase reporter stable cell line had been stably transfected with pTA-ARE-luciferase reporter vector, which contains 4 repeats of antioxidant response binding sites, a minimal promoter upstream of the firefly luciferase coding region, along with a hygromycin expression vector. Following selection, the hygromycin resistant clones were subsequently screened for TBHQ-induced luciferase activity. The clone with the highest fold induction was selected and expanded to produce this stable cell line.
4, 8 or 24 hours after stimulation of the NRF2 reporter cells luminescence was measured using a FLUOstar Omega plate reader.

[2] = test system: NRF2 reporter cells; assay: Cell viability measured with ATP assay alongside NRF2 translocation (FIG. 4 to 7); conditions: for cell viability, percentage of the vehicle control: human
Text: FIGS. 5A to 5C: bar and line graphs showing NRF2 translocation presented as log 2 fold change compared to vehicle control (bars) and cell viability measured with ATP assay and presented as a percentage of the vehicle control (line) for anatabine (FIG. 5A), dimethyl fumarate (AlfaAesar) (FIG. 5B), and nornicotine (FIG. 5C).
FIGS. 6A to 6C: bar graphs showing NRF2 translocation presented as log 2 fold change compared to vehicle control (bars) and cell viability measured with ATP assay and presented as a percentage of the vehicle control (line) for anatabine (FIG. 6A), dimethyl fumarate (Sigma) (FIG. 6B), and sulforaphane (FIG. 6C).
FIGS. 7A and […]: bar graphs showing NRF2 translocation presented as log 2 fold change compared to vehicle control (bars) and cell viability measured with ATP assay and presented as a percentage of the vehicle control (line) for cotinine (FIG. 7A) and nicotine (FIG. 7B).

Compound | maximum log 2-fold change of NRF2 activation [1] | cell viability at higher concentrations [2] | cell viability, percentage of the vehicle control ([2]; 500 μM) | effect on the NRF2 pathway [1] | also measured
COC(=O)/C=C/C(=O)OC [DMF, dimethyl fumarate] | 6 to 7 | significantly reduced | ~0% |  | NRF2 activation, log 2-fold change ([1]; 125 μM, DMF from AlfaAesar): 6.74; NRF2 activation, log 2-fold change ([1]; 125 μM, DMF from Sigma): 6.90; NRF2 activation, log 2-fold change ([1]; 250 μM, DMF from AlfaAesar): 6.81; NRF2 activation, log 2-fold change ([1]; 250 μM, DMF from Sigma): 6.67
c1cncc([C@@H]2CCCCN2)c1 [anabasine] |  |  |  | do not substantially affect | 
CN1C(=O)CC[C@H]1c1cccnc1 [cotinine] |  |  | below 85% | do not substantially affect | cell viability, percentage of the vehicle control ([2]; 1000 μM): below 85%
CN1CCCC1c1cccnc1 (centres unmarked) [nicotine] |  |  |  | do not substantially affect | 
c1cncc([C@@H]2CCCN2)c1 [nornicotine] |  |  |  | do not substantially affect | 
C[S+]([O-])CCCCN=C=S (centres unmarked) [sulforaphane] | approximately 5 | significantly reduced |  |  | NRF2 activation, log 2-fold change ([1]; 0.78 to 50 μM (P<0.01)): increase; cell viability, percentage of the vehicle control ([2]; 25 μM): around 50%

Source: patent US20260224547A1, “COMPOSITIONS COMPRISING ANATABINE AND USES THEREOF” (Philip Morris Products S.A., priority 2021, published 2026)
